A short description of data set [1]: Water vapor sorption/desorption (dynamic vapor sorption). As to conditions: two water sorption/desorption cycles, 25° C.
Method: The sample weight changes were monitored as function of the time and relative humidity. Two identical relative humidity-time experiment cycles (0 to 90% relative humidity) were performed to detect any changes in solid-state properties.
The nature of data set [2]: Stability in moist environments and in processes involving water. In kind it is physicochemical.
Another data set relates to muscaranic receptors. As to conditions: in vitro; cited from earlier work.
The test system of the next data set is monoamine oxidase. Conditions: cited from earlier work.
The subject of the next data set is adrenergic receptors. Conditions: in vitro; cited from earlier work.
Another data set has as its system histaminergic receptors. Conditions: in vitro; cited from earlier work.

The text below walks through data of patent US20050272822A1 (priority 2001, published 2005).

Structures can show the parent of a compound that is named as a salt.

On to `COc1ccc(C(CN(C)C)C2(O)CCCCC2)cc1` (stereo not shown) [venlafaxine hydrochloride monohydrate], for which the “solid-state transition during dehydration/hydration cycling” value in data set [1] is “reversible”. Besides, the “stability in moist environments” value in data set [2] (atmospheres having at least 20% relative humidity) is recorded as “stable”. In addition, the “stability in processes involving water compared with known forms” value in data set [2] (processes involving water, such as wet granulation) is “more stable than known forms”.

On to `COc1ccc(C(CN(C)C)C2(O)CCCCC2)cc1` (stereo not shown) [venlafaxine, 1-[2-(dimethylamino)-1-(4-methoxyphenyl)ethyl]cyclohexanol], for which the “affinity for muscaranic receptors” value in the data set on muscaranic receptors was “virtually no affinity”. Moreover, the “inhibitory activity on monoamine oxidase” value in the data set with monoamine oxidase is on record as “no inhibitory activity”. Also, in the data set on adrenergic receptors, the “affinity for adrenergic receptors” value is “virtually no affinity”. In the data set with histaminergic receptors, the “affinity for histaminergic receptors” value is on record as “virtually no affinity”.
